# Source: patent US6576620B2, “Method of identifying partial adenosine A1 receptor agonists” (CV Therapeutics, Inc., priority 1999, dated 2003)
# System: Adenosine A1 receptor
# Test: A1-agonist stimulated [35S]GTPγS binding to G proteins
# Assay type: biochemical
# Settings: Table 1, compounds of Example 2; normalized to the full agonist CPA
# Procedure: At the end of the incubation, each suspension was filtered and the retained radioactivity determined as described above.
row,Molecule,GTPγS [%]
1,"2-{6-[((3R)oxolan-3-yl)amino]purin-9-yl}(4S,2R,3R,5R)-5-{[cyclopentyloxythioxomethyl)amino]methyl}oxolane-3,4-diol [Compound 72 of Example 2]",93
2,"CC(C)NC(=O)OC[C@H]1O[C@@H](n2cnc3c(N[C@@H]4CCOC4)ncnc32)[C@H](O)[C@@H]1O [Compound 32 of Example 2, {(5-{6-[((3R)oxolan-3-yl)amino]purin-9-yl}(3S,2R,4R,5R)-3,4-dihydroxyoxolan-2-yl)methoxy]-N-(methylethyl)carboxamide]",91
3,COC(=O)C1CCCC1NC(=O)OC[C@H]1O[C@@H](n2cnc3c(N[C@@H]4CCOC4)ncnc32)[C@H](O)[C@@H]1O (stereo partly drawn) [Compound 34 of Example 2],17
4,CCOC(=O)[C@H]1C2C=CC(C2)[C@H]1NC(=O)OC[C@H]1O[C@@H](n2cnc3c(N[C@@H]4CCOC4)ncnc32)[C@H](O)[C@@H]1O (stereo partly drawn) [Compound 35 of Example 2],52
5,CCOC(=O)[C@H]1C2CCC(C2)[C@H]1NC(=O)OC[C@H]1O[C@@H](n2cnc3c(N[C@@H]4CCOC4)ncnc32)[C@H](O)[C@@H]1O (stereo partly drawn) [Compound 36 of Example 2],41
6,"O=C(N[C@@H]1CCC[C@H]1OCc1ccccc1)OC[C@H]1O[C@@H](n2cnc3c(N[C@@H]4CCOC4)ncnc32)[C@H](O)[C@@H]1O [Compound 37 of Example 2, {(5-{6 [((3R)oxolan-3-yl)amino]purin-9-yl}(3S,2R,4R,5R)-3,4-dihydroxyoxolan-2-yl)methoxy]-N-[(1R,2R)-2-(phenylmethoxy)cyclopentyl]carboxamide]",30
7,"O=C(N[C@H]1CCC[C@@H]1OCc1ccccc1)OC[C@H]1O[C@@H](n2cnc3c(N[C@@H]4CCOC4)ncnc32)[C@H](O)[C@@H]1O [Compound 38 of Example 2, {(5-{6[((3R)oxolan-3-yl)amino]purin-9-yl}(3S,2R,4R,5R)-3,4-dihydroxyoxolan-2-yl)methoxy]-N-[(1 S,2S)-2-(phenylmethoxy)cyclopentyl]carboxamide]",1
8,"O=C(NC1CCC1)OC[C@H]1O[C@@H](n2cnc3c(N[C@@H]4CCOC4)ncnc32)[C@H](O)[C@@H]1O [Compound 39 of Example 2, [(5-{6-[((3R)oxolan-3-yl)amino}purin-9-yl}(3S,2R,4R,5R)-3,4-dihydroxyoxolan-2-yl)methoxy]-N-cyclobutylcarboxamide]",67
9,O=C(NC1CC1c1ccccc1)OC[C@H]1O[C@@H](n2cnc3c(N[C@@H]4CCOC4)ncnc32)[C@H](O)[C@@H]1O (stereo partly drawn) [Compound 40 of Example 2],−6
10,"C=CCNC(=O)OC[C@H]1O[C@@H](n2cnc3c(N[C@@H]4CCOC4)ncnc32)[C@H](O)[C@@H]1O [Compound 41 of Example 2, [(5-{6-[((3R)oxolan-3-yl)amino]purin-9-yl}(3S,2R,4R,5R)-3,4-dihydroxyoxolan-2-yl)methoxy]-N-prop-2-enylcarboxamide]",48
11,"CCOC(=O)CCNC(=O)OC[C@H]1O[C@@H](n2cnc3c(N[C@@H]4CCOC4)ncnc32)[C@H](O)[C@@H]1O [Compound 42 of Example 2, Ethyl 3-{[(5-{6-[((3R)oxolan-3-yl)amino]purin-9-yl}(3S, 2R,4R,5R)-3,4-dihydroxyoxolane-2-yl)methoxy}carbonylamino}propanoate]",47
12,"COC(=O)CNC(=O)OC[C@H]1O[C@@H](n2cnc3c(N[C@@H]4CCOC4)ncnc32)[C@H](O)[C@@H]1O [Compound 43 of Example 2, Methyl 2-{[(5-{6-[((3R)oxolan-3-yl)amino]purin-9-yl}(3S, 2R,4R,5R)dihydroxyoxolane-2-yl)methoxy}carbonylamino}acetate]",53
13,"CCCCNC(=S)OC[C@H]1O[C@@H](n2cnc3c(N[C@@H]4CCOC4)ncnc32)[C@H](O)[C@@H]1O [Compound 48 of Example 2, 2-{6-[((3R)oxolan-3-yl)amino]purin-9-yl}(4S,2R,3R,5R)-5-{[(butylamino)thioxomethoxy]methyl}oxolane-3,4-diol]",70
14,"O[C@@H]1[C@H](O)[C@@H](COC(=S)N2CCCCC2)O[C@H]1n1cnc2c(N[C@@H]3CCOC3)ncnc21 [Compound 50 of Example 2, 2-{6-[((3R)oxolan-3-yl)amino]purin-9-yl}(4S,2R,3R,5R)-5-[(piperidylthioxomethoxy)methyl]oxolane-3,4-diol]",88
15,"O[C@@H]1[C@H](O)[C@@H](COC(=S)N2CCCC2)O[C@H]1n1cnc2c(N[C@@H]3CCOC3)ncnc21 [Compound 52 of Example 2, 2-{6-[((3R)oxolan-3-yl)amino]purin-9-yl}(4S,2R,3R,5R)-5-[(pyrrolidinylthioxomethoxy)methyl]oxolane-3,4-diol]",77
16,"CN(C)C(=S)OC[C@H]1O[C@@H](n2cnc3c(N[C@@H]4CCOC4)ncnc32)[C@H](O)[C@@H]1O [Compound 53 of Example 2, 2-{6-[((3R)oxolan-3-yl)amino]purin-9-yl}(4S,2R,3R,5R)-5-{[(dimethylamino)thioxomethoxy]methyl}oxolane-3,4-diol]",85
17,"O[C@@H]1[C@H](O)[C@@H](COC(=S)NCc2ccccc2)O[C@H]1n1cnc2c(N[C@@H]3CCOC3)ncnc21 [Compound 54 of Example 2, 2-{6-[((3R)oxolan-3-yl)amino]purin-9-yl}(4S,2R,3R,5R)-5-({[benzylamino]thioxomethoxy}methyl)oxolane-3,4-diol]",93
18,"O[C@@H]1[C@H](O)[C@@H](COC(=S)NC2CCCCC2)O[C@H]1n1cnc2c(N[C@@H]3CCOC3)ncnc21 [Compound 55 of Example 2, 2-{6-[((3R)oxolan-3-yl)amino]purin-9-yl}(4S,2R,3R,5R)-5-({[cyclohexylamino]thioxomethoxy}methyl)oxolane-3,4-diol]",82
19,"O[C@@H]1[C@H](O)[C@@H](COC(=S)N[C@H]2CCC[C@@H]2OCc2ccccc2)O[C@H]1n1cnc2c(N[C@@H]3CCOC3)ncnc21 [Compound 56 of Example 2, 2-{6-[((3R)oxolan-3-yl)amino]purin-9-yl}(4S,2R,3R,5R)-5-[({[(1S,2S)-2-(phenylmethoxy)cyclopentyl]amino}thioxomethoxy)methyl]oxolane-3,4-diol]",52
20,"O[C@@H]1[C@H](O)[C@@H](COC(=S)N[C@@H]2CCC[C@H]2OCc2ccccc2)O[C@H]1n1cnc2c(N[C@@H]3CCOC3)ncnc21 [Compound 57 of Example 2, 2-{6-[((3R)oxolan-3-yl)amino]purin-9-yl}(4S,2R,3R,5R)-5-[(([(1R,2R)-2-(phenylmethoxy)cyclopentyl]amino}thioxomethoxy)methyl]oxolane-3,4-diol]",67
21,"O[C@@H]1[C@H](O)[C@@H](COC(=S)NC2CCC2)O[C@H]1n1cnc2c(NC3CCOC3)ncnc21 (stereo partly drawn) [Compound 58 of Example 2, 2-{6-[((3)oxolan-3-yl)amino]purin-9-yl}(4S,2R,3R,5R)-5{[(cyclobutylamino)thioxomethoxy]methyl}oxolane-3,4-diol]",79
22,"O[C@@H]1[C@H](O)[C@@H](COC(=S)NC2CC2)O[C@H]1n1cnc2c(N[C@@H]3CCOC3)ncnc21 [Compound 59 of Example 2, 2-{6-[((3R)oxolan-3-yl)amino]purin-9-yl}(4S,2R,3R,5R)-5-{[(cyclopropylamino)thioxomethoxy]methyl}oxolane-3,4-diol]",82
23,"C=CCNC(=S)OC[C@H]1O[C@@H](n2cnc3c(N[C@@H]4CCOC4)ncnc32)[C@H](O)[C@@H]1O [Compound 60 of Example 2, 2-{6-[((3R)oxolan-3-yl)amino]purin-9-yl}(4S,2R,3R,5R)-5-{[(prop-2-enylamino)thioxomethoxy]methyl}oxolane-3,4-diol]",77
24,O=C(N[C@H]1CCC[C@@H]1O)OC[C@H]1O[C@@H](n2cnc3c(N[C@@H]4CCOC4)ncnc32)[C@H](O)[C@@H]1O [Compound 61 of Example 2],59
25,"O=C(N[C@@H]1CCC[C@H]1O)OC[C@H]1O[C@@H](n2cnc3c(N[C@@H]4CCOC4)ncnc32)[C@H](O)[C@@H]1O [Compound 62 of Example 2, {(5-{6[((3R)oxolan-3-yl)amino]purin-9-yl}(3S,2R,4R,5R)-3,4-dihydroxyoxolan-2-yl)methoxy]-N-((1R,2R)-2-hydroxycyclopentyl)carboxamide]",42
26,"O[C@@H]1[C@H](O)[C@@H](COC(=S)N[C@@H]2CCC[C@H]2O)O[C@H]1n1cnc2c(N[C@@H]3CCOC3)ncnc21 [Compound 63 of Example 2, 2-{6-[((3R)oxolan-3-yl)amino]purin-9-yl}(4S,2R,3R,5R)-5-({[((1R,2R)-2-hydroxycyclopentyl)amino]thioxomethoxy}methyl)oxolane-3,4-diol]",100

# Same assay, conditions: Table 2, compounds of Example 3; normalized to the full agonist CPA
row,Molecule,GTPγS [%]
1,"CCNc1nc2c(N[C@@H]3CCOC3)ncnc2n1[C@@H]1O[C@H](CO)[C@@H](O)[C@H]1O [Compound 5 of Example 3, 2-{6-[((3R)oxolan-3-yl)amino]-8-(ethylamino)purin-9-yl}(4S,2R,3R,5R)-5-(hydroxymethyl)oxolane-3,4-diol]",89

# Same assay, conditions: Table 3, compounds of Example 4; normalized to the full agonist CPA
row,Molecule,GTPγS [%]
1,"Cc1ccc(SC[C@H]2O[C@@H](n3cnc4c(N[C@@H]5CCOC5)ncnc43)[C@H](O)[C@@H]2O)cc1 [Compound 15 of Example 4, 2-{6-[((3R)oxolan-3-yl)amino]purin-9-yl}(4S,5S,2R,3R)-5-[(4-methylphenylthio)methyl]oxolane-3,4-diol]",48
2,"O[C@@H]1[C@H](O)[C@@H](CSc2ccc(C(F)(F)F)cc2)O[C@H]1n1cnc2c(N[C@@H]3CCOC3)ncnc21 [Compound 16 of Example 4, 2-{6-[((3R)oxolan-3-yl)amino]purin-9-yl}(4S,5S,2R,3R)-5-[(4-(trifluoromethyl)phenylthio)methyl]oxolane-3,4-diol]",31
3,"COc1ccccc1SC[C@H]1O[C@@H](n2cnc3c(N[C@@H]4CCOC4)ncnc32)[C@H](O)[C@@H]1O [Compound 17 of Example 4, 2-{6-[((3R)oxolan-3-yl)amino]purin-9-yl}(4S,5S,2R,3R)-5-[(2-Methoxyphenylthio)methyl]oxolane-3,4-diol]",52
